For one experiment, the target named is USP1/UAF1 (Homo sapiens (Human), UniProt O94782). In words: USP1/UAF1 activity, ubiquitin-rhodamine110-glycine (Ub-Rho) assay. It counts as biochemical. The note with it: 0.1 nM USP1/UAF1, 100 nM Ub-Rho, 120 minutes; read-out: IC50 (nM), inhibitory effects on USP1/UAF1 activity. Here is the method: USP1/UAF1 activity was determined by using ubiquitin-rhodamine110-glycine (Ub-Rho; Boston Biochem) assay. Enzymatic reactions were conducted in an assay buffer (50 mM Tris-HCl, pH 7.8, 0.5 mM EDTA, 100 mM NaCl, 1 mM DTT, 0.01 BSA, and 0.01% Tween-20) that contained 0.1 nM USP1/UAF1. Each individual compound was tested at ten concentrations in the range of 0.0005 to 10 μM. The plates were incubated for 15 min to attain equilibrium, and then the enzymatic reaction was initiated by dispensing 10 μL of Ub-Rho solution (100 nM final concentration). After treating 120 minutes with Ub-Rho solution, the rhodamine fluorescence was acquired using a 480 nm excitation/540 nm emission filter set by using Envision instrument. The inhibition rate of the compound to USP1/UAF1 enzyme activity was calculated according to the following formula.
IC50 value is obtained by fitting the s-shaped dose response curve equation by using XL Fit software. The curve equation is Y=100/(1+10^(log C−log IC50)). C is the compound concentration.

Experiment [1] concerns BRCA mutant human breast cancer MDA-MB-436 cell line. Put plainly: Growth inhibition of MDA-MB-436 cells, CCK-8 method. It counts as cell-based. To be noted: MDA-MB-436, 168 h, 7 days incubation, read-out: IC50 (nM), inhibition of proliferation of MDA-MB-436 cells, CCK-8 method. Here is the method:
The cells were cultured in complete medium (DMEM medium+10% FBS+Insulin+glutathione). When the confluence reached about 80%, cells were digested and gently dispensed from the bottom of the dish with a 1 mL pipette. Cell suspension was collected and centrifuged at 500 rpm for 3 min. The supernatant was discarded, and the cell pellet were re-suspended in complete medium. The cells were seeded into a culture dish at an appropriate proportion, and then cultured in a 5% CO2 incubator at 37° C. The assay was carried out when the cells were in optimum condition and the confluence was reached 80%. Cells in the logarithmic growth phase were taken to centrifugate, and the culture supernatant was removed. The cells were resuspended in refresh complete medium and counted. The resuspended cells were seeded at 3000/well in a 96-well plate and incubated at 37° C., 5% CO2 incubator overnight. The compound was prepared as below: 1000× dilution tested compound solution to 40× test compound solution by adding 5 μL 1000× compound solution to 120 μL Medium (25-fold dilution). The solution was mixed by oscillation, 0.1% DMSO was used as the control.
The next day, the 96-well plate inoculated with cells was taken out from the incubator, and the culture supernatant was removed. Then fresh medium of 195 uL/well and 5 μL/well of 40× test compound solution as mentioned above were added into the 96 well plate, respectively. Finally, the plate was incubated for 7 days in a 37° C. 5% CO2 incubator. The medium containing compound was changed on the fourth day.
CCK Method: After 7 days, 20 μL of CCK-8 was added to each well and shaken gently, then was cultured for 4 hours. The plate was shaken for 5 min after incubation, the absorbance values of 450 nm or 650 nm wavelengths were recorded respectively (OD=absorbance value of 450 nm−absorbance value of 650 nm) by using the multifunction readout instrument.
Data were analyzed by software GraphPad Prism 6.0. The inhibitory activity of compounds on cell proliferation was plotted using cell survival rate against the compound concentration as coordinates. Cell survival rate %=(ODcompound−ODbackground)/(ODDMSO−ODbackground)×100. The IC50 value was fitted by the s-shaped dose response curve equation: Y=100/(1+10^(log C−log IC50)), and C was the compound concentration.
Table 3 summarizes the inhibitory effect data (IC50) of the compounds on the proliferation of human breast cancer cells MDA-MB-436 determined by CCK-8 method.

USP1/UAF1, sequence (O94782 whole entry): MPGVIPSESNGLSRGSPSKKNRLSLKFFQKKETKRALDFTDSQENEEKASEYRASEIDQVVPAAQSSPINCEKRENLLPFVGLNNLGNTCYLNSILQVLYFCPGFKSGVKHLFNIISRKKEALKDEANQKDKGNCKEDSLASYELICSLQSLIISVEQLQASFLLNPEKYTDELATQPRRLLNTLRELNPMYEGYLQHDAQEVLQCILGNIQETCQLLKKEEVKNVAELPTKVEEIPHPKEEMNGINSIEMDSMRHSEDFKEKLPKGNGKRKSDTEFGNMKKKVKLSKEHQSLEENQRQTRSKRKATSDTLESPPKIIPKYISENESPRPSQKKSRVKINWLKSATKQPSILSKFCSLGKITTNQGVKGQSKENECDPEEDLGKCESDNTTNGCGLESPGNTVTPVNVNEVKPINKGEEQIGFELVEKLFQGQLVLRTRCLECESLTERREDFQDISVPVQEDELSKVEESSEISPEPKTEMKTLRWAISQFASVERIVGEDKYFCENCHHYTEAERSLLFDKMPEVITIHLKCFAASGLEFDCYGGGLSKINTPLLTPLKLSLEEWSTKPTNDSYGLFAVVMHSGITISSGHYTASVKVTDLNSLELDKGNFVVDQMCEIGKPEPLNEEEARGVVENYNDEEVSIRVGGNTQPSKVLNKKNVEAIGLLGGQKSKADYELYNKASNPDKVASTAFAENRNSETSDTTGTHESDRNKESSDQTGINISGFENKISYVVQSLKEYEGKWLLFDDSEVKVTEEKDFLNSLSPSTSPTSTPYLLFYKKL
USP1/UAF1, sequence (Q8TAF3 whole entry partner): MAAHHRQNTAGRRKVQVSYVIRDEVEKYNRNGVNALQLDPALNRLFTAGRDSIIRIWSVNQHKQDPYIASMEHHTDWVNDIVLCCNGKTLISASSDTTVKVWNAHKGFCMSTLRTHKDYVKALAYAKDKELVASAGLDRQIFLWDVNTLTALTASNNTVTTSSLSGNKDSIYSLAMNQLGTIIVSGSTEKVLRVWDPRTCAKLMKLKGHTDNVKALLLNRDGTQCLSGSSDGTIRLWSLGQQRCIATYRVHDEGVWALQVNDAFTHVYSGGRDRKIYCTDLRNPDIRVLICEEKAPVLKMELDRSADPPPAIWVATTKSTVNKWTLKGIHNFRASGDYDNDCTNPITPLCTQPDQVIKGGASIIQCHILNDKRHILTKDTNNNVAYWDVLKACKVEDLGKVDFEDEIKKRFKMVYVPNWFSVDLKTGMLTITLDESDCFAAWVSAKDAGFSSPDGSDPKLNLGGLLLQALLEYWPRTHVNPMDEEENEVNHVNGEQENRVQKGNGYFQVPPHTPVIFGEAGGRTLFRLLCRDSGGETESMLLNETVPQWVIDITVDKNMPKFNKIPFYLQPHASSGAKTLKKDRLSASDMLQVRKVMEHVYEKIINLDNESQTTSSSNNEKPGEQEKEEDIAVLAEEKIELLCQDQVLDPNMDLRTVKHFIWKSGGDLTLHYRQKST

As to `COc1ncnc(C2CC2)c1-c1nc2c(Cc3ccc(-c4nc(C(F)(F)F)cn4C)cc3)nccn2n1` [Example 18, 2-(4-cyclopropyl-6-methoxypyrimidin-5-yl)-8-(4-(1-methyl-4-(trifluoromethyl)-1H-imidazol-2-yl)benzyl)-[1,2,4]triazolo[1,5-a]pyrazine], the IC50 on USP1/UAF1 was 11.2 nM.
For `CCn1cc(C(F)(F)F)nc1-c1c(F)cc(Cc2nccc3nc(-c4c(OC)ncnc4C4CC4)nn23)cc1F` [Example 42, 2-(4-cyclopropyl-6-methoxypyrimidin-5-yl)-5-(4-(1-ethyl-4-(trifluoromethyl)-1H-imidazol-2-yl)-3,5-difluorobenzyl)-[1,2,4]triazolo[1,5-c]pyrimidine], the IC50 on USP1/UAF1 came to 732 nM.
`Cc1cnn(C(C)C)c1-c1nc2c(Cc3ccc(-c4nc(C(F)(F)F)cn4C)cc3)ccnn2n1` [Example 17, 2-(1-isopropyl-4-methyl-1H-pyrazol-5-yl)-8-(4-(1-methyl-4-(trifluoromethyl)-1H-imidazol-2-yl)benzyl)-[1,2,4]triazolo[1,5-b]pyridazine]: the IC50 in experiment [1] turned out to be 39.5 nM.
As to `CCn1cc(C(F)(F)F)nc1-c1c(F)cc(Cc2cccc3nc(-c4c(OC)ncnc4C4CC4)nn23)cc1OC` [Example 39, 2-(4-cyclopropyl-6-methoxypyrimidin-5-yl)-5-(4-(1-ethyl-4-(trifluoromethyl)-1H-imidazol-2-yl)-3-fluoro-5-methoxybenzyl)-[1,2,4]triazolo[1,5-a]pyridine], the IC50 at USP1/UAF1 came out at 18.8 nM.
Consider `CCn1cc(C(F)(F)F)nc1-c1c(F)cc(Cc2nccn3nc(-c4c(OC)ncnc4C4CC4)nc23)cc1F` [Example 31, 2-(4-cyclopropyl-6-methoxypyrimidin-5-yl)-8-(4-(1-ethyl-4-(trifluoromethyl)-1H-imidazol-2-yl)-3,5-difluorobenzyl)-[1,2,4]triazolo[1,5-a]pyrazine], for which, on USP1/UAF1, the IC50 came out at 57.5 nM.
On to `COc1ncnc(C2CC2)c1-c1nc2c(Cc3ccc(-c4nc(C(F)(F)F)cn4C)c(F)c3)nccn2n1` [Example 30, 2-(4-cyclopropyl-6-methoxypyrimidin-5-yl)-8-(3-fluoro-4-(1-methyl-4-(trifluoromethyl)-1H-imidazol-2-yl)benzyl)-[1,2,4]triazolo[1,5-a]pyrazine], for which the IC50 on USP1/UAF1 is 41.4 nM.
For `CCn1cc(C(F)(F)F)nc1-c1c(F)cc(Cc2cncc3nc(-c4c(OC)ncnc4C4CC4)nn23)cc1F` [Example 45, 2-(4-cyclopropyl-6-methoxypyrimidin-5-yl)-5-(4-(1-ethyl-4-(trifluoromethyl)-1H-imidazol-2-yl)-3,5-difluorobenzyl)-[1,2,4]triazolo[1,5-a]pyrazine], on USP1/UAF1, the IC50 is 99.7 nM.
In the case of `Cc1cnn(C(C)C)c1-c1nc2cccc(Cc3ccc(-c4nc(C(F)(F)F)cn4C)cc3)n2n1` [Example 15, 2-(1-isopropyl-4-methyl-1H-pyrazol-5-yl)-5-(4-(1-methyl-4-(trifluoromethyl)-1H-imidazol-2-yl)benzyl)-[1,2,4]triazolo[1,5-a]pyridine], the IC50 in experiment [1] worked out at 10.3 nM.
As for `COc1ncnc(C2CC2)c1-c1nc2c(Cc3ccc(-c4nc(C(F)(F)F)cn4C4CC4)cc3)cncn2n1` [Example 32, 8-(4-(1-cyclopropyl-4-(trifluoromethyl)-1H-imidazol-2-yl)benzyl)-2-(4-cyclopropyl-6-methoxypyrimidin-5-yl)-[1,2,4]triazolo[1,5-c]pyrimidine], the IC50 on USP1/UAF1 turned out to be 111 nM.
Take `COc1ncnc(C2CC2)c1-c1nc2ccnc(Cc3ccc(-c4nc(C(F)(F)F)cn4C)cc3)n2n1` [Example 21, 2-(4-cyclopropyl-6-methoxypyrimidin-5-yl)-5-(4-(1-methyl-4-(trifluoromethyl)-1H-imidazol-2-yl)benzyl)-[1,2,4]triazolo[1,5-c]pyrimidine]: the IC50 at USP1/UAF1 is 16.1 nM.
On to `COc1ncnc(C2CC2)c1-c1nc2c(Cc3ccc(-c4nc(C(F)(F)F)cn4C4CC4)cc3)cccn2n1` [Example 24, 8-(4-(1-cyclopropyl-4-(trifluoromethyl)-1H-imidazol-2-yl)benzyl)-2-(4-cyclopropyl-6-methoxypyrimidin-5-yl)-[1,2,4]triazolo[1,5-a]pyridine], for which the IC50 on USP1/UAF1 is 11.8 nM.
Consider `COc1ncnc(C2CC2)c1-c1nc2cncc(Cc3ccc(-c4nc(C(F)(F)F)cn4C4CC4)cc3)n2n1` [Example 43, 5-(4-(1-cyclopropyl-4-(trifluoromethyl)-1H-imidazol-2-yl)benzyl)-2-(4-cyclopropyl-6-methoxypyrimidin-5-yl)-[1,2,4]triazolo[1,5-a]pyrazine], for which the IC50 at USP1/UAF1 was determined as 38.9 nM.
On the same count and under the same terms, as for `COc1ncnc(C2CC2)c1-c1nc2c(Cc3ccc(-c4nc(C(F)(F)F)cn4C)c(F)c3)cccn2n1` [Example 25, 2-(4-cyclopropyl-6-methoxypyrimidin-5-yl)-8-(3-fluoro-4-(1-methyl-4-(trifluoromethyl)-1H-imidazol-2-yl)benzyl)-[1,2,4]triazolo[1,5-a]pyridine], the figure is 11.6 nM.
As to `CCn1cc(C(F)(F)F)nc1-c1c(F)cc(Cc2cccn3nc(-c4c(OC)ncnc4C4CC4)nc23)cc1OC` [Example 26, 2-(4-cyclopropyl-6-methoxypyrimidin-5-yl)-8-(4-(1-ethyl-4-(trifluoromethyl)-1H-imidazol-2-yl)-3-fluoro-5-methoxybenzyl)-[1,2,4]triazolo[1,5-a]pyridine], the IC50 at USP1/UAF1 was 39.5 nM.
On the same count and under the same terms, as for `COc1ncnc(C2CC2)c1-c1nc2cncc(Cc3ccc(-c4nc(C(F)(F)F)cn4C)c(F)c3)n2n1` [Example 44, 2-(4-cyclopropyl-6-methoxypyrimidin-5-yl)-5-(3-fluoro-4-(1-methyl-4-(trifluoromethyl)-1H-imidazol-2-yl)benzyl)-[1,2,4]triazolo[1,5-a]pyrazine], the figure is 78.3 nM; as for `COc1ncnc(C2CC2)c1-c1nc2cccc(Cc3ccc(-c4nc(C(F)(F)F)cn4C)c(F)c3)n2n1` [Example 38, 2-(4-cyclopropyl-6-methoxypyrimidin-5-yl)-5-(3-fluoro-4-(1-methyl-4-(trifluoromethyl)-1H-imidazol-2-yl)benzyl)-[1,2,4]triazolo[1,5-a]pyridine], 5.44 nM; as for `COc1ncnc(C2CC2)c1-c1nc2c(Cc3ccc(-c4nc(C(F)(F)F)cn4C)c(F)c3)cncn2n1` [Example 33, 2-(4-cyclopropyl-6-methoxypyrimidin-5-yl)-8-(3-fluoro-4-(1-methyl-4-(trifluoromethyl)-1H-imidazol-2-yl)benzyl)-[1,2,4]triazolo[1,5-c]pyrimidine], 94.5 nM.
Same read-out and setting: next, `COc1ncnc(C2CC2)c1-c1nc2c(Cc3ccc(-c4nc(C(F)(F)F)cn4C4CC4)cc3)nccn2n1` [Example 29, 8-(4-(1-cyclopropyl-4-(trifluoromethyl)-1H-imidazol-2-yl)benzyl)-2-(4-cyclopropyl-6-methoxypyrimidin-5-yl)-[1,2,4]triazolo[1,5-a]pyrazine]: 34.6 nM; `COc1ncnc(C2CC2)c1-c1nc2cccc(Cc3ccc(-c4nc(C(F)(F)F)cn4C4CC4)cc3)n2n1` [Example 37, 5-(4-(1-cyclopropyl-4-(trifluoromethyl)-1H-imidazol-2-yl)benzyl)-2-(4-cyclopropyl-6-methoxypyrimidin-5-yl)-[1,2,4]triazolo[1,5-a]pyridine]: 9.53 nM; `CCn1cc(C(F)(F)F)nc1-c1c(F)cc(Cc2cncn3nc(-c4c(OC)ncnc4C4CC4)nc23)cc1F` [Example 34, 2-(4-cyclopropyl-6-methoxypyrimidin-5-yl)-8-(4-(1-ethyl-4-(trifluoromethyl)-1H-imidazol-2-yl)-3,5-difluorobenzyl)-[1,2,4]triazolo[1,5-c]pyrimidine]: 242 nM.

(Values after patent US20240409538A1, “SUBSTITUTED TRIAZOLOHETEROARYL COMPOUNDS AS USP1 INHIBITORS AND THE USE THEREOF” (IMPACT THERAPEUTICS (SHANGHAI), INC., priority 2021, published 2024).)
